Laboratory results taken from article PMC3348334 (Bioorganic & medicinal chemistry letters, 2012).

Test system: COX
Test: COX activity inhibition at single concentration
Format: biochemical, human
Conditions: at 100 μM

## O=C(O)c1cccc(Nc2ccc([N+](=O)[O-])c3ccccc23)c1 [Compound 2, 3-((4-nitronaphthalen-1-yl)amino)benzoic acid]
  inhibition of COX activity: no significant inhibition
